Source: PubChem BioAssay AID248 (DTP/NCI, 2004)
Several values for one entry are separate records, joined by “and”; a condition that tells them apart may be missing. Equal entries are not always repeated. Inconclusive results and toxic doses are left out. Rule as the data show it: active = T/C of 150% or more; inactive = T/C below 125%.

System: L1210 leukemia ip in BDF1 mice, survival T/C
Experiment: NCI In Vivo Anticancer Drug Screen. Data for tumor model L1210 Leukemia (intraperitoneal) in B6D2F1 (BDF1) mice
Details: endpoint: mean survival time, higher = longer survival
Method in brief: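 Transplantable tumor model; survival measured in treated vs vehicle control mice. Value = treated/control.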

[1] = dose: 100.0 mg/kg/injection, schedule: Q01DX001 (ip), vehicle: saline
[2] = dose: 400.0 mg/kg/injection, schedule: Q01DX001 (ip), vehicle: carboxymethylcellulose (CMC)
[3] = dose: 100.0 mg/kg/injection, schedule: Q01DX009 (ip), vehicle: Klucel (hydroxypropylcellulose) (HPC)
[4] = dose: 100.0 mg/kg/injection, schedule: Q04DX003 (ip), vehicle: Klucel (hydroxypropylcellulose) (HPC)
[5] = dose: 200.0 mg/kg/injection, schedule: Q01DX009 (ip), vehicle: Klucel (hydroxypropylcellulose) (HPC)
[6] = dose: 200.0 mg/kg/injection, schedule: Q04DX003 (ip), vehicle: Klucel (hydroxypropylcellulose) (HPC)
[7] = dose: 400.0 mg/kg/injection, schedule: Q01DX009 (ip), vehicle: Klucel (hydroxypropylcellulose) (HPC)
[8] = dose: 400.0 mg/kg/injection, schedule: Q04DX003 (ip), vehicle: Klucel (hydroxypropylcellulose) (HPC)
[9] = dose: 100.0 mg/kg/injection, schedule: Q01DX001 (ip), vehicle: carboxymethylcellulose (CMC)
[10] = dose: 200.0 mg/kg/injection, schedule: Q01DX001 (ip), vehicle: carboxymethylcellulose (CMC)
[11] = dose: 200.0 mg/kg/injection, schedule: Q01DX001 (ip), vehicle: saline
[12] = dose: 400.0 mg/kg/injection, schedule: Q01DX001 (ip), vehicle: saline

Measured: T/C

CC1=C2C(=C(CBr)OS1(=O)=O)C(=O)c1ccccc12
inactive: dose: 100.0 mg/kg/injection, schedule: Q01DX009 (ip), vehicle: saline with Tween-80 92 % of control | dose: 100.0 mg/kg/injection, schedule: Q04DX003 (ip), vehicle: saline with Tween-80 96 % of control | dose: 200.0 mg/kg/injection, schedule: Q01DX009 (ip), vehicle: saline with Tween-80 92 % of control | dose: 200.0 mg/kg/injection, schedule: Q04DX003 (ip), vehicle: saline with Tween-80 103 % of control | dose: 400.0 mg/kg/injection, schedule: Q01DX009 (ip), vehicle: saline with Tween-80 95 % of control | dose: 400.0 mg/kg/injection, schedule: Q04DX003 (ip), vehicle: saline with Tween-80 94 % of control

O=C(Nc1ccccn1)c1cc(N2CCOCC2)ccn1
inactive: [1] 102 % of control

CCOCc1ccc(O)c2ncccc12
inactive: dose: 264.0 mg/kg/injection, schedule: Q01DX001 (ip), vehicle: carboxymethylcellulose (CMC) 106 % of control | [2] 107 % of control

COC(=O)c1ccccc1N=NNc1ccccc1-c1nc(N)nc(N)n1
inactive: [3] 95 % of control | [4] 103 % of control | [5] 104 % of control | [6] 106 % of control | [7] 98 % of control | [8] 95 % of control

CO/C=C(\C)C(=O)NC(=O)Nc1ccccc1
inactive: dose: 100.0 mg/kg/injection, schedule: Q01DX001 (ip), vehicle: other 93 % of control | dose: 200.0 mg/kg/injection, schedule: Q01DX001 (ip), vehicle: other 98 % of control | dose: 400.0 mg/kg/injection, schedule: Q01DX001 (ip), vehicle: other 96 % of control

NC(N)=NCCCCCC(=O)O
inactive: dose: 100.0 mg/kg/injection, schedule: Q01DX009 (ip), vehicle: saline 95 % of control | dose: 100.0 mg/kg/injection, schedule: Q04DX003 (ip), vehicle: saline 103 % of control | dose: 200.0 mg/kg/injection, schedule: Q01DX009 (ip), vehicle: saline 88 % of control | dose: 200.0 mg/kg/injection, schedule: Q04DX003 (ip), vehicle: saline 100 % of control | dose: 400.0 mg/kg/injection, schedule: Q04DX003 (ip), vehicle: saline 101 % of control

CSC1C(OC(=O)c2ccccc2)C(COC(=O)c2ccccc2)OC1n1cnc2ncnc(NC(=O)c3ccccc3)c21 (configuration not stated)
inactive: dose: 100.0 mg/kg/injection, schedule: Q01DX005 (ip), vehicle: saline 100 % of control | dose: 200.0 mg/kg/injection, schedule: Q01DX005 (ip), vehicle: saline 92 % of control

O=c1[nH]c(-c2ccc(O)cc2)nc2[nH]ncc12
inactive: [4] 88 % of control | [6] 86 % of control

COC1COC(OC)C(OS(C)(=O)=O)C1OC (configuration not stated)
inactive: [9] 106 % of control | [10] 98 % of control | [2] 101 % of control

NNC(=O)CNc1ccc(Br)cc1F
inactive: dose: 100.0 mg/kg/injection, schedule: Q04DX002 (ip), vehicle: Klucel (hydroxypropylcellulose) (HPC) 104 % of control | dose: 200.0 mg/kg/injection, schedule: Q04DX002 (ip), vehicle: Klucel (hydroxypropylcellulose) (HPC) 115 % of control

OCC1OC(n2cnc3c(=S)nc[nH]c32)CC1O (configuration not stated)
inactive: dose: 8.0 mg/kg/injection, schedule: Q01DX015 (ip), vehicle: saline 103 % of control | dose: 16.0 mg/kg/injection, schedule: Q01DX015 (ip), vehicle: saline 108 % of control | dose: 32.0 mg/kg/injection, schedule: Q01DX015 (ip), vehicle: saline 115 % of control | dose: 50.0 mg/kg/injection, schedule: Q01DX001 (ip), vehicle: saline 104 % of control | dose: 64.0 mg/kg/injection, schedule: Q01DX015 (ip), vehicle: saline 122 % of control | [1] 106 % of control | dose: 178.0 mg/kg/injection, schedule: Q01DX001 (ip), vehicle: saline 113 % of control | [11] 115 % of control | dose: 267.0 mg/kg/injection, schedule: Q01DX001 (ip), vehicle: saline 108 % of control | [12] 121 % of control
active: dose: 180.0 mg/kg/injection, schedule: Q01DX015 (ip), vehicle: saline 156 % of control | dose: 300.0 mg/kg/injection, schedule: Q01DX015 (ip), vehicle: saline 154 % of control and 156 % of control | dose: 600.0 mg/kg/injection, schedule: Q01DX015 (ip), vehicle: saline 163 % of control

CCC(O)c1cnc(OCc2ccccc2)nc1OCc1ccccc1 (configuration not stated)
inactive: [3] 94 % of control | [4] 96 % of control | [5] 95 % of control | [6] 95 % of control | [7] 90 % of control | [8] 100 % of control

C/C(=N/NC(N)=O)c1cccc([N+](=O)[O-])c1
inactive: [1] 89 % of control | [11] 89 % of control | [12] 93 % of control

CN(C)CCCN=Cc1ccccc1O.CN(C)CCCN=Cc1ccccc1O.[Ni+2]
inactive: dose: 6.25 mg/kg/injection, schedule: Q04DX003 (ip), vehicle: saline with Tween-80 100 % of control | dose: 12.5 mg/kg/injection, schedule: Q04DX003 (ip), vehicle: saline with Tween-80 94 % of control | dose: 25.0 mg/kg/injection, schedule: Q04DX003 (ip), vehicle: saline with Tween-80 101 % of control

CCCCSC(=N)N
inactive: [1] 94 % of control

O=C(COc1ccc(Cl)cc1C(=O)O)Nc1cccc(NC(=O)Nc2cc(S(=O)(=O)F)ccc2Cl)c1
inactive: dose: 100.0 mg/kg/injection, schedule: Q01DX001 (ip), vehicle: Klucel (hydroxypropylcellulose) (HPC) 94 % of control | dose: 200.0 mg/kg/injection, schedule: Q01DX001 (ip), vehicle: Klucel (hydroxypropylcellulose) (HPC) 88 % of control | dose: 400.0 mg/kg/injection, schedule: Q01DX001 (ip), vehicle: Klucel (hydroxypropylcellulose) (HPC) 91 % of control

CC(C)(C)OC(=O)N1CCCC1C(=O)O (configuration not stated)
inactive: [9] 109 % of control | [10] 104 % of control | [2] 95 % of control

CC1(C)C2CCC1(CS(=O)(=O)O)C(=O)C2Br.[Ag] (configuration not stated)
inactive: dose: 1.56 mg/kg/injection, schedule: Q01DX009 (ip), vehicle: saline 101 % of control | dose: 3.12 mg/kg/injection, schedule: Q01DX009 (ip), vehicle: saline 108 % of control | dose: 6.25 mg/kg/injection, schedule: Q01DX009 (ip), vehicle: saline 90 % of control | dose: 12.5 mg/kg/injection, schedule: Q01DX009 (ip), vehicle: saline with Tween-80 93 % of control

CSc1ccc(NC(=O)Nc2ccccc2)cc1
inactive: [3] 116 % of control | [4] 95 % of control | [5] 106 % of control | [6] 93 % of control | [7] 106 % of control | [8] 95 % of control

C[n+]1cccc(C(=O)NN=C2CCCCC2)c1
inactive: dose: 100.0 mg/kg/injection, schedule: Q01DX001 (ip), vehicle: saline with Tween-80 93 % of control | dose: 200.0 mg/kg/injection, schedule: Q01DX001 (ip), vehicle: saline with Tween-80 102 % of control | dose: 400.0 mg/kg/injection, schedule: Q01DX001 (ip), vehicle: saline with Tween-80 94 % of control

O=C1NC2c3ccccc3CCC12 (configuration not stated)
inactive: dose: 100.0 mg/kg/injection, schedule: Q04DX002 (ip), vehicle: saline with Tween-80 102 % of control | dose: 200.0 mg/kg/injection, schedule: Q04DX002 (ip), vehicle: saline with Tween-80 100 % of control | dose: 400.0 mg/kg/injection, schedule: Q04DX002 (ip), vehicle: saline with Tween-80 96 % of control

COC(=O)C1CC2(CNc3ccccc32)CN1C (configuration not stated)
inactive: [4] 90 % of control | [6] 89 % of control | [8] 89 % of control

C=C(Br)CNC(=O)CCCl
inactive: dose: 6.25 mg/kg/injection, schedule: Q01DX009 (ip), vehicle: other 109 % of control | dose: 12.5 mg/kg/injection, schedule: Q01DX009 (ip), vehicle: other 98 % of control | dose: 25.0 mg/kg/injection, schedule: Q01DX009 (ip), vehicle: other 102 % of control

CCC1OCCN1C(C)C (configuration not stated)
inactive: dose: 26.0 mg/kg/injection, schedule: Q01DX Z (ip), vehicle: other 105 % of control | dose: 90.0 mg/kg/injection, schedule: Q01DX Z (ip), vehicle: other 111 % of control | [1] 102 % of control and 104 % of control | dose: 135.0 mg/kg/injection, schedule: Q01DX Z (ip), vehicle: other 95 % of control | [11] 96 % of control and 104 % of control | [12] 92 % of control and 93 % of control
